Results from patent US7414041B2 (Trustees Of Tufts College, priority 1991, dated 2008).
Read-outs that look alike come from different tables or passages of the source.

What was measured:
E. faecalis ATCC 9790 = test: MIC of tetracycline susceptible strains, C5 esters; assay type: cell-based; settings: Enterococcus faecalis, ATCC9790; E. faecalis ATCC 9790, alone; read-out: MIC
S. aureus 4250 (Tet K) = test: MIC/MLC chart, analog with and without doxycycline; assay type: cell-based; settings: for MIC/MLC chart symbol: Chart 6B, doxy = number in box (line above), listed as H analog alone
E. faecalis 158 (Tet L) = test: MIC/MLC chart, analog with and without doxycycline; assay type: cell-based; settings: Chart 6C, doxy = number in box (line above), listed as H analog alone
E. coli D1-299 (Tet A) = assay type: cell-based; settings: Chart 6A, doxy = number in box (line above), listed as H analog alone;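 further: E. coli at roughly 5×10^5 cells/ml in L broth, analog and doxycycline alone or mixed in two-fold dilutions from 50 to under 1 µg/ml, 18 h at 37 °C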
S. aureus 450 = test: MIC of tetracycline susceptible strains, C5 esters; assay type: cell-based; settings: Staphylococcus aureus; S. aureus 450, alone; read-out: MIC
[1] = biological target: T1, TET proteins responsible for tetracycline efflux (Class B tetracycline resistance determinant, strain D1-209) (Escherichia coli, UniProt P02980); test: biochemical; parameters: species or system E. coli
T1 construct: Everted vesicles, to which the TET proteins responsible for tetracycline efflux are attached; endogenous in cells; host or cells: E. coli strain D1-209 (everted membrane vesicles)
T1 sequence (P02980 whole entry): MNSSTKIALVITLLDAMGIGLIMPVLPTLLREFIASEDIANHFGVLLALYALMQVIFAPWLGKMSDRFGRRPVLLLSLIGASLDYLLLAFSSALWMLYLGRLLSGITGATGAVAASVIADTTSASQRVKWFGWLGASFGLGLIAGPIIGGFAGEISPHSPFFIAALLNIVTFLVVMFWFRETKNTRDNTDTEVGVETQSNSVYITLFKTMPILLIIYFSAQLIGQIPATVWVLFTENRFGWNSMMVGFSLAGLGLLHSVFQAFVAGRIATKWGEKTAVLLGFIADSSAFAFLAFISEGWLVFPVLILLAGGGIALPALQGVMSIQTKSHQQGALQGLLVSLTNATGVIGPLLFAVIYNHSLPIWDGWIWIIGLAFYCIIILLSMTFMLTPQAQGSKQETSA

E. coli ML308 = test: MIC of tetracycline susceptible strains, C5 esters; assay type: cell-based; settings: Escherichia coli; E. coli ML308, alone; read-out: MIC
E. faecalis 211 (Tet M) = test: MIC/MLC chart, analog with and without doxycycline; assay type: cell-based; settings: Chart 6D, doxy = number in box (line above), listed as H analog alone;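 further: broth checkerboard of two-fold drug dilutions, alone and mixed with doxycycline, bacteria near 5×10^5 cells/ml, 18 h incubation at 37 °C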

For `C=C1c2cccc(O)c2C(=O)C2=C(O)C3(O)C(=O)C(C(N)=O)=C(O)C(N(C)C)C3C(OC(=O)CC)C12` (stereo not shown) [Cmpd 2, 5 proprionate methacycline], the MIC (E. faecalis ATCC 9790) was 0.8 mg/L, the MIC/MLC chart symbol (S. aureus 4250 (Tet K); analog 1.56 μg/ml) was “↓ and ◯ and +” and the MIC/MLC chart symbol (S. aureus 4250 (Tet K); analog .195 μg/ml) was “↓ and +”. For the same compound, the MIC/MLC chart symbol (S. aureus 4250 (Tet K); analog .39 μg/ml) was “↓ and +”, the MIC/MLC chart symbol (S. aureus 4250 (Tet K); analog .78 μg/ml) was “◯ and +” and the MIC in combination (S. aureus 4250 (Tet K); with 1.55 μg/ml doxycycline (Chart 6B)) was 1.56 mg/L. For the same compound, the MIC in combination (S. aureus 4250 (Tet K); with 6.23 μg/ml doxycycline (Chart 6B)) was 0.78 mg/L, the MIC/MLC chart symbol (E. faecalis 158 (Tet L); analog 1.56 μg/ml) was “↓ and ◯” and the MIC/MLC chart symbol (E. faecalis 158 (Tet L); analog .195 μg/ml) was “◯ and +”. For the same compound, the MIC/MLC chart symbol (E. faecalis 158 (Tet L); analog .39 μg/ml) was “◯ and +”, the MIC/MLC chart symbol (E. faecalis 158 (Tet L); analog .78 μg/ml) was “◯ and +” and the MIC/MLC chart symbol (E. coli D1-299 (Tet A); analog 1.56 μg/ml) was “+”. For the same compound, the MIC/MLC chart symbol (E. coli D1-299 (Tet A); analog 3.12 μg/ml) was “+”, the MIC/MLC chart symbol (E. coli D1-299 (Tet A); analog 3.12 μg/ml, listed as 5-proprionate methacycline) was “◯” and the MIC/MLC chart symbol (E. coli D1-299 (Tet A); analog 6.25 μg/ml) was “+”. For the same compound, the MIC/MLC chart symbol (E. coli D1-299 (Tet A); analog 6.25 μg/ml, listed as 5-proprionate methacycline) was “◯”, the MIC/MLC chart symbol (E. coli D1-299 (Tet A); analog 12.5 μg/ml) was “+” and the MIC/MLC chart symbol (E. coli D1-299 (Tet A); analog 25 μg/ml) was “+”. For the same compound, the MIC/MLC chart symbol (E. coli D1-299 (Tet A); analog 25 μg/ml, listed as 5-proprionate methacycline) was “◯”, the MIC/MLC chart symbol (E. coli D1-299 (Tet A); analog .195 μg/ml) was “+” and the MIC/MLC chart symbol (E. coli D1-299 (Tet A); analog .39 μg/ml) was “+”. The MIC/MLC chart symbol (E. coli D1-299 (Tet A); analog .78 μg/ml) was “+”, the MIC (S. aureus 450) was 1.3 mg/L and the IC50 [1] was 0.2 µM. The MIC (E. coli ML308) was 10 mg/L, the MIC/MLC chart symbol (E. faecalis 211 (Tet M); analog 1.56 μg/ml) was “◯ and +” and the MIC/MLC chart symbol (E. faecalis 211 (Tet M); analog 3.12 μg/ml) was “+”. The MIC/MLC chart symbol (E. faecalis 211 (Tet M); analog 6.25 μg/ml) was “↓ and +”, the MIC/MLC chart symbol (E. faecalis 211 (Tet M); analog .195 μg/ml) was “+” and the MIC/MLC chart symbol (E. faecalis 211 (Tet M); analog .39 μg/ml) was “+”. The MIC/MLC chart symbol (E. faecalis 211 (Tet M); analog .78 μg/ml) was “+”.
